Patent publication US20020137929A1, “1 - (3-heterocyclylphenyl) isothiourea, -isourea, -guanidine and -amidine herbicidal agents” (Intellectual Property Department, BASF Aktiengesellschaft, priority 1998, published 2002)

Experiments:
AMBEL (Ragweed, Common) [1] = assay: Postemergence herbicidal evaluation; type: in vivo, Ambrosia artemisifolia; details: postemergence
Procedure, shortened: (§1)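 Compound is applied as a foliar spray to seedlings about two weeks old, formulated in equal parts acetone and water with 0.5% TWEEN 20 and delivered at 40 psi to give about 0.0156–0.500 kg per hectare. Injury is rated visually 0–9 after four to five weeks.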

[2] = tested on: IPOHE (Morningglory, Ivyleaf); assay: Postemergence herbicidal evaluation; type: in vivo, Ipomoea hederacea; details: postemergence
Procedure, shortened: as §1

[3] = tested on: GLXMAW (Soybean, Williams); assay: Postemergence herbicidal evaluation; type: in vivo, Glycine max, (L.) Merr. cv Williams; details: postemergence
Procedure, shortened: as §1

ZEAMX (Corn, Field) = assay: Postemergence herbicidal evaluation; type: in vivo, Zea mays; details: postemergence
Procedure, shortened: as §1

ABUTH (Velvetleaf) = assay: Preemergence herbicidal evaluation; type: in vivo, Abutilon theophrasti; details: rated 4-5 weeks after treatment
Procedure, shortened: (§2)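 Greenhouse preemergence test: seed-soil mix sown on ~1 inch soil; aqueous acetone spray at equivalent of ~0.0156–0.500 kg/ha; greenhouse-held and watered; scored 0–9 visually at 4–5 weeks.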

AMBEL (Ragweed, Common) [4] = assay: Preemergence herbicidal evaluation; type: in vivo, Ambrosia artemisifolia; details: rated 4-5 weeks after treatment
Procedure, shortened: as §2

CASOB (Sicklepod) = assay: Preemergence herbicidal evaluation; type: in vivo, Cassia obtusifolia; details: rated 4-5 weeks after treatment
Procedure, shortened: as §2

GALAP (Galium) = assay: Preemergence herbicidal evaluation; type: in vivo, Galium aparine; details: rated 4-5 weeks after treatment
Procedure, shortened: as §2

ECHCG (Barnyardgrass) = assay: Preemergence herbicidal evaluation; type: in vivo, Echinochloa crus-galli; details: rated 4-5 weeks after treatment
Procedure, shortened: as §2

SETVI (Foxtail, Green) = assay: Preemergence herbicidal evaluation; type: in vivo, Setaria viridis; details: rated 4-5 weeks after treatment
Procedure, shortened: as §2

[5] = tested on: GLXMAW (Soybean, Williams); assay: Preemergence herbicidal evaluation; type: in vivo, Glycine max, (L.) Merr. cv Williams; details: rated 4-5 weeks after treatment
Procedure, shortened: as §2

CYPSE (Flatsedge) = assay: Preemergence weed control under flooded paddy conditions; type: in vivo, Cyperus serotinus; details: rated 3-4 weeks after treatment
Procedure, shortened: (§3)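 Seeds or propagules sown in silt loam kept flooded 1.5-3 cm; compounds in 50/50 acetone/water pipetted into flood water at about 0.0313 to 0.500 kg/ha. Greenhouse; visual 0-9 rating versus untreated control 3-4 weeks after treatment.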

[6] = tested on: SAGPY (Arrowhead (Pygmaea)); assay: as above; type: in vivo, Sagittaria pygmaea; details: rated 3-4 weeks after treatment
Procedure, shortened: as §3

[7] = tested on: ECHORC (Watergrass (Calif.)); assay: Postemergence weed control under flooded paddy conditions; type: in vivo, Echinochloa oryzoides; details: postemergence weeds, rated 3 to 4 weeks after treatment
Procedure, shortened: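 Containers holding 3–5 cm weeds and rice at 1.5–2.5 leaves are flooded to 1.5–3 cm above soil. Compound in 50/50 v/v aqueous/acetone is then added directly to the water, about 0.0313–0.500 kg/ha. Plants are kept in the greenhouse and rated 0–9 visually at 3–4 weeks.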

C[C@@H](C(=O)OC(C)(C)C)N1C(=O)CSC1=Nc1cc(-n2c(=O)cc(C(F)(F)F)n(C)c2=O)c(F)cc1Cl [Compound 75, tert-Butyl 2-{{2-chloro-5-[3,6-dihydro-3-methyl-2,6-dioxo-4-(trifluoromethyl)-1(2H)-pyrimidinyl]-4-fluorophenyl}imino}-α-methyl-4-oxo-3-thiazolidineacetate, L-]
4.0: GLXMAW herbicidal rating ([3]; rate 0.0158 kg/ha) | ZEAMX herbicidal rating (ZEAMX (Corn, Field); rate 0.0158 kg/ha)
1.0: Preemergence herbicidal rating AMBEL (AMBEL (Ragweed, Common) [4]; rate 0.0625 kg/ha) | Preemergence herbicidal rating CASOB (CASOB (Sicklepod); rate 0.1250 kg/ha) | Preemergence herbicidal rating CASOB (CASOB (Sicklepod); rate 0.2500 kg/ha)
4.5: GLXMAW herbicidal rating ([3]; rate 0.0315 kg/ha) | ZEAMX herbicidal rating (ZEAMX (Corn, Field); rate 0.0315 kg/ha)
3.0: CYPSE herbicidal effect rating (CYPSE (Flatsedge); 0.0625 kg/ha) | CYPSE herbicidal effect rating (CYPSE (Flatsedge); 0.1250 kg/ha) | CYPSE herbicidal effect rating (CYPSE (Flatsedge); 0.2500 kg/ha) | SAGPY herbicidal effect rating ([6]; 0.2500 kg/ha)
6.0: Preemergence herbicidal rating AMBEL (AMBEL (Ragweed, Common) [4]; rate 0.1250 kg/ha) | Herbicidal rating ECHORC ([7]; Rate 0.0313 kg/ha) | Herbicidal rating ECHORC ([7]; Rate 0.0625 kg/ha)
7.0: AMBEL herbicidal rating (AMBEL (Ragweed, Common) [1]; rate 0.0158 kg/ha) | IPOHE herbicidal rating ([2]; rate 0.0158 kg/ha) | IPOHE herbicidal rating ([2]; rate 0.0315 kg/ha) | Preemergence herbicidal rating AMBEL (AMBEL (Ragweed, Common) [4]; rate 0.2500 kg/ha)
0.0: Preemergence herbicidal rating ABUTH (ABUTH (Velvetleaf); rate 0.0156 kg/ha) | Preemergence herbicidal rating ABUTH (ABUTH (Velvetleaf); rate 0.0313 kg/ha) | Preemergence herbicidal rating AMBEL (AMBEL (Ragweed, Common) [4]; rate 0.0156 kg/ha) | Preemergence herbicidal rating AMBEL (AMBEL (Ragweed, Common) [4]; rate 0.0313 kg/ha) | Preemergence herbicidal rating CASOB (CASOB (Sicklepod); rate 0.0156 kg/ha) | Preemergence herbicidal rating CASOB (CASOB (Sicklepod); rate 0.0313 kg/ha) | Preemergence herbicidal rating CASOB (CASOB (Sicklepod); rate 0.0625 kg/ha) | Preemergence herbicidal rating GALAP (GALAP (Galium); rate 0.0156 kg/ha) | Preemergence herbicidal rating GALAP (GALAP (Galium); rate 0.0313 kg/ha) | Preemergence herbicidal rating GALAP (GALAP (Galium); rate 0.0625 kg/ha) | Preemergence herbicidal rating GALAP (GALAP (Galium); rate 0.1250 kg/ha) | Preemergence herbicidal rating GALAP (GALAP (Galium); rate 0.2500 kg/ha) | Preemergence herbicidal rating ECHCG (ECHCG (Barnyardgrass); rate 0.0156 kg/ha) | Preemergence herbicidal rating ECHCG (ECHCG (Barnyardgrass); rate 0.0313 kg/ha) | Preemergence herbicidal rating ECHCG (ECHCG (Barnyardgrass); rate 0.0625 kg/ha) | Preemergence herbicidal rating ECHCG (ECHCG (Barnyardgrass); rate 0.1250 kg/ha) | Preemergence herbicidal rating SETVI (SETVI (Foxtail, Green); rate 0.0156 kg/ha) | Preemergence herbicidal rating SETVI (SETVI (Foxtail, Green); rate 0.0313 kg/ha) | Preemergence herbicidal rating SETVI (SETVI (Foxtail, Green); rate 0.0625 kg/ha) | Preemergence herbicidal rating GLXMAW ([5]; rate 0.0156 kg/ha) | Preemergence herbicidal rating GLXMAW ([5]; rate 0.0313 kg/ha) | Preemergence herbicidal rating GLXMAW ([5]; rate 0.0625 kg/ha) | SAGPY herbicidal effect rating ([6]; 0.0313 kg/ha) | SAGPY herbicidal effect rating ([6]; 0.0625 kg/ha) | SAGPY herbicidal effect rating ([6]; 0.1250 kg/ha)
2.0: Preemergence herbicidal rating ECHCG (ECHCG (Barnyardgrass); rate 0.2500 kg/ha) | Preemergence herbicidal rating GLXMAW ([5]; rate 0.1250 kg/ha) | Preemergence herbicidal rating GLXMAW ([5]; rate 0.2500 kg/ha) | CYPSE herbicidal effect rating (CYPSE (Flatsedge); 0.0313 kg/ha)
5.0: AMBEL herbicidal rating (AMBEL (Ragweed, Common) [1]; rate 0.0315 kg/ha) | GLXMAW herbicidal rating ([3]; rate 0.0630 kg/ha) | ZEAMX herbicidal rating (ZEAMX (Corn, Field); rate 0.0630 kg/ha)
9.0: AMBEL herbicidal rating (AMBEL (Ragweed, Common) [1]; rate 0.0630 kg/ha) | IPOHE herbicidal rating ([2]; rate 0.0630 kg/ha) | Preemergence herbicidal rating ABUTH (ABUTH (Velvetleaf); rate 0.0625 kg/ha) | Preemergence herbicidal rating ABUTH (ABUTH (Velvetleaf); rate 0.1250 kg/ha) | Preemergence herbicidal rating ABUTH (ABUTH (Velvetleaf); rate 0.2500 kg/ha) | Preemergence herbicidal rating SETVI (SETVI (Foxtail, Green); rate 0.1250 kg/ha) | Preemergence herbicidal rating SETVI (SETVI (Foxtail, Green); rate 0.2500 kg/ha) | Herbicidal rating ECHORC ([7]; Rate 0.1250 kg/ha) | Herbicidal rating ECHORC ([7]; Rate 0.2500 kg/ha)
